Test results published in US20230114264A1, “ACTIVATION OF LYTIC GENES IN CANCER CELLS” (priority 2020, published 2023).

Tests used:
C666-1 cells = assay: Growth proliferation, viability, apoptosis, cell cycle and clonogenic assays in C666-1 cells; assay type: cell-based
Protocol: Growth proliferation assay. SNU-719 HA-dCas9-Tet-on-PUFa-p65HSF1-BZLF1 gRNA (3) or C666-1 HA-dCas9-Tet-on-PUFa-p65HSF1-BZLF1 gRNA (A5) cells were seeded into individual wells of a 96-well plate for at 1×10^5 cells per well the day before being treated with 1 μg/mL DOX and Ganciclovir (GCV). Cells were counted with the cell counting kit-8 (CCK-8, Sigma) at day 6, day 7, and day 8 (FIGS. 8H-8I).
Active caspase-3 analysis. To detect the apoptosis in DOX treated dCas9-Tet on-p65HSF1-BZLF1sgRNA3 SNU719 and C17 cells, active caspase-3 apoptosis kit (BD Pharmingen #550914) was used. Untreated and treated cells were trypsinized and then fixed with fixation buffer in ice for 20 mins and washed with washing buffer twice. Cells were then stained with the PE conjugated rabbit anti active caspase-3 antibody in dark for 30 mins. Stained cells were collected with BD LSRFortessa.
Cell cycle analysis. After 96 hours from induction of DOX, dCas9-Tet on-p65HSF1-BZLF1sgRNA3 SNU719 and C17 cells were trypsinized and then fixed with 75% cold ethanol for 2 hrs at −20° C. Cells were washed three times with cold PBS and then resuspended in PBS containing 100 μg/mL RNase A and 10 μg/mL propidium iodide for 10 min at room temperature. Stained cells were collected with BD LSRFortessa.
Clonogenic assays. Cells were seeded at a density of 500 cells/well in 6-well plates the day before treatment. Then cells were stained with 0.5% crystal violet 14 days after treatment, and at least 50 cells were considered as a single colony

EBV lytic genes [1] = assay: EBV lytic gene induction in DOX-induced SNU-719 dCas9-Tet-on-PUFa-p65HSF1 gRNA cells; assay type: cell-based, Epstein-Barr virus (EBV)
Excerpt: (§1) SNU-719 and C666-1 cancer cells stably expressing HA-dCas9-EGFP and BZLF1 gRNA (A5) were modified to inducibly express 3×FLAG-PUFa-p65HSF1 using a Tetracycline response element (Tet-On). […] This reactivation of EBV slows the growth rate of cells by greater than 4 fold compared with cells treated with ganciclovir (GCV) alone, a current standard treatment for EBV infection (FIGS. 3B, 6A, 8H-8I). Further, treatment with BZLF1 gRNA (A5) decreases C666-1 cell viability by 50-70% relative to control (FIG. 6B).
(§2) Producing Tet-on PUFa-p65HSF1 cell line. SNU-719 or C666-1 cells stably expressing HA-dCas9-EGFP were seeded into a 60 mm culture dish at 70% density. The cells were transfected with 1 μg hyPBase (transposase) and 2 μg dox-inducible PUFa-p65HSF1 in a piggyBac vector plasmid through Lipofectamine 2000 reagent (Invitrogen). At 6 hours post-transfection, cell culture medium was exchanged. At 48 hours post-transfection, cells were selected with hygromycin antibiotics.
(§3) Producing Tet-on PUFa-p65HSF1 and BZLF1 gRNA (3) cell line. The day prior to transfection, HEK-293FT cells were seeded into a 10 cm culture dish at 70% density. […]. At 6 hours post-transfection, medium was exchanged for fresh. At 48 hours post-transfection, 5 mL of medium containing the lentivirus was collected and centrifuged for 10 minutes at 2,000 rpm to remove cellular debris. The supernatant was filtered through a 0.45-micron filter (Millipore), and the lentivirus was collected. SNU-719 dCas9-Tet-on-PUFa-p65HSF1 or C666-1 dCas9-Tet-on-PUFa-p65HSF1 cells were seeded into a 10 cm culture dish at 60% density per dish, transduced with 7 mL of the BZLF1 gRNA (A5) lentivirus in culture medium supplemented with 8 μg/mL polybrene for 48 hours, and subsequently selected with Puromycin antibiotics on the third day post-transduction.
(§4) RNA in-situ hybridization ISH (RNAscope®). Doxycycline (DOX) treated or untreated SNU-719 HA-dCas9-EGFP-Tet-on-PUFa-p65HSF1-BZLF1 gRNA (A5) cells or C666-1-HA-dCas9-Tet-on-PUFa-p65HSF1-BZLF1 gRNA (A5) cells were incubated for 48 hours. […]

EBV lytic genes [2] = assay: EBV lytic gene induction in DOX-induced C666-1 dCas9-Tet-on-PUFa-p65HSF1 gRNA cells; assay type: cell-based, Epstein-Barr virus (EBV)
Excerpt: as §1, §2, §3, §4

[3] = 1 μg/mL Doxycycline (DOX), Example 10
[4] = 3×FLAG-PUFa-p65HSF1 induced with 1 μg/mL Doxycycline

## BZLF1 gRNA (A5): BZLF1 gRNA spacer sequence SEQ ID NO: 10, GAAACTATGCATGAGCCAC (chemistry not given here)
C666-1 cells; DOX induced, FIG. 17B
  cell cycle by flow cytometry: sub G1 phase accumulation and S phase decrease
C666-1 cells; DOX-induced EBV reactivation
  cell proliferation, apoptosis and growth of cells in vitro: suppressed the cell proliferation, induced apoptosis, and slowed the growth of cells
C666-1 cells; EBV reactivation, FIGS. 3B, 6A, 8H
  slowing of growth rate of cells compared with cells treated with ganciclovir (GCV) alone: greater than 4 fold
C666-1 cells; FIG. 6B, 120 hours following treatment
  decrease of C666-1 cell viability relative to control: 50-70%
C666-1 cells; after DOX induction, FIG. 17E
  monolayer colony formation: dramatic suppression
EBV lytic genes [1]; 1 μg/mL DOX
  expression of other EBV lytic genes including BRLF1 (Rta), BGLF4 (PK), BFRF3 (VCAp18), BMRF1, BdRF1 and BLLF1: induces the expression of other EBV lytic genes
EBV lytic genes [1]; [3]
  BZLF1 (Zta) reactivation: reactivated BZLF1 (Zta)
EBV lytic genes [1]; [4]
  induction of the BZLF1, BGLF4, BMRF1, and BFRF3 (VCAp18) EBV lytic genes: reactivated EBV
EBV lytic genes [2]; 1 μg/mL DOX
  expression of other EBV lytic genes including BRLF1 (Rta), BGLF4 (PK), BFRF3 (VCAp18), BMRF1, BdRF1 and BLLF1: induces the expression of other EBV lytic genes
EBV lytic genes [2]; [3]
  BZLF1 (Zta) reactivation: reactivated BZLF1 (Zta)
EBV lytic genes [2]; [4]
  induction of the BZLF1, BGLF4, BMRF1, and BFRF3 (VCAp18) EBV lytic genes: reactivated EBV
